Several values for one entry are separate records, joined by “and”; a condition that tells them apart may be missing. Equal entries are not always repeated. Marks after values point to notes of the source that are not given here.
Tests used:
[1] = test system: dogs with newly diagnosed idiopathic epilepsy; assay: monotherapy in dogs with newly diagnosed idiopathic epilepsy (AWD 131-138 pilot study; retrospective phenobarbital, primidone); details: for duration of the ictus before treatment, median / duration of the ictus before treatment, time range / duration of the ictus during treatment, median / duration of the ictus during treatment, time range: grand mal seizures; for duration of the ictus before treatment, median / duration of the ictus before treatment, time range / Seizure frequency before treatment, all dogs / Seizure frequency before treatment, without nonresponders: baseline before monotherapy; for % reduction of seizures in responders: mean ± SEM; for Seizure frequency before treatment, all dogs / Seizure frequency before treatment, without nonresponders / Seizure frequency during treatment, all dogs / Seizure frequency during treatment, without nonresponders: median group value; for Seizure frequency during treatment, all dogs / Seizure frequency during treatment, without nonresponders: asterisk = P<0.05 vs before; for shortening of the postictal phase, mean: in the dogs with shortening; for dogs with unchanged or increased seizure severity: owners record
[2] = cited from earlier work
[3] = test system: dogs with chronic idiopathic epilepsy; assay: add-on therapy in dogs with chronic idiopathic epilepsy not responding to phenobarbital or primidone; type: in vivo, dog
[4] = serum concentrations of phenobarbital and bromide
[5] = add-on to phenobarbital or primidone
[6] = grand mal seizures, add-on to phenobarbital or primidone
[7] = grand mal seizures, on phenobarbital or primidone before add-on
[8] = median, on phenobarbital/primidone before add-on
[9] = potassium bromide 40-60 mg/kg p.o. daily, add-on
[10] = 44 newly diagnosed dogs, phenobarbital 4 to 13 mg/kg p.o. daily
[11] = eight chronic epilepsy dogs (potassium bromide add-on group), phenobarbital 6 to 17 mg/kg p.o. daily
[12] = eleven chronic epilepsy dogs (later AWD add-on), phenobarbital 6 to 23 mg/kg p.o. daily

## CCC1(c2ccccc2)C(=O)NCNC1=O [Primidone, primidone]
[1]; ANOVA
  comparison of antiepileptic efficacy between monotherapy treatment groups: did not indicate any significant differences
[1]
  duration of the ictus before treatment, median: 1.5 min
  duration of the ictus before treatment, time range: 0.5 to 10 min
  Seizure frequency before treatment, all dogs: 1.75 seizures/month
  Seizure frequency before treatment, without nonresponders: 2.0 seizures/month
[1]; monotherapy
  duration of the ictus during treatment, median: 1.0 min
  duration of the ictus during treatment, time range: 0.5 to 10 min
  % reduction of seizures in responders: 75.1 ± 5.1%
  Seizure frequency during treatment, all dogs: 0.39 seizures/month
  Seizure frequency during treatment, without nonresponders: 0.29* seizures/month
  dogs in which a seizure reduction was observed: 19 of 26
  dogs that died or were euthanized in status epilepticus: 10
  dogs with focal seizures instead of grand mal seizures during treatment: 2
  dogs with reduced seizure number per cluster: 5 out of ten
  number of dogs with decreased duration of the ictus: 2
  number of dogs with shortened postictal phase: 5
  owners reporting subjectively a decrease of seizure severity: ten of 22
  postictal phase during treatment, mean: 4.5 h
  reduction of seizure number per cluster, mean: 37.5%
  shortening of the postictal phase, mean: 40%
  dogs with unchanged or increased seizure severity: 2
[1]; monotherapy, in the dogs with a decrease
  decrease of the duration of the ictus: 30%

## [Br-].[K+] [Potassium bromide, potassium bromide, reference compound]
[2]; established by PODELL and FENNER 1993
  bromide concentration, therapeutic range: 1.0 to 2.0 mg/mL
[3]; Fisher's exact test
  comparison of antiepileptic efficacy between the two add on treatment schedules: did not indicate any significant difference
[3]; add-on
  dogs in which clusters did not occur anymore: 6
  dogs with worsening of seizure severity reported by owner: one
  number of dogs with decreased duration of the ictus: 3
  number of dogs with shortened postictal phase: two
  postictal phase during treatment, mean: 5.5 h
[3]; [5]
  dogs in which a seizure reduction was observed: 7 of 12
  dogs that died or were euthanized in status epilepticus: 6
[3]; add-on to phenobarbital/primidone
  Number of seizure-free dogs: 0/12
[3]; add-on, in the dogs with shortening
  shortening of the postictal phase: 50% and 75%
[3]; [6]
  duration of the ictus during treatment, median: 2.0 min
  duration of the ictus during treatment, time range: 1 to 10 min
[3]; [7]
  duration of the ictus before treatment, median: 3.0 min
  duration of the ictus before treatment, time range: 1 to 13 min
[3]; mean ± SEM, add-on to phenobarbital/primidone
  % reduction of seizures in responders: 59.7 ± 5.9%
[3]; median, add-on to phenobarbital/primidone
  Seizure frequency during treatment, all dogs: 1.9 seizures/month
[3]; median, add-on to phenobarbital/primidone, asterisk = P<0.05
  Seizure frequency during treatment, without nonresponders: 0.8* seizures/month
[3]; [8]
  Seizure frequency before treatment, all dogs: 3.0 seizures/month
  Seizure frequency before treatment, without nonresponders: 3.0 seizures/month
[4]; [9]
  Bromide concentration, mean: 1.0 mg/mL
  Bromide concentration, median: 0.9 mg/mL

## CCC1(c2ccccc2)C(=O)NC(=O)NC1=O [Phenobarbital, phenobarbital]
[2]; established by FARNBACH 1984
  phenobarbital serum concentration, reference values: 45 µg/mL
[1]
  duration of the ictus before treatment, median: 4.0 min
  duration of the ictus before treatment, time range: 0.5 to 10 min
  Seizure frequency before treatment, all dogs: 1.6 seizures/month
  Seizure frequency before treatment, without nonresponders: 1.68 seizures/month
[1]; monotherapy
  duration of the ictus during treatment, median: 5.0 min
  duration of the ictus during treatment, time range: 0.5 to 10 min
  % reduction of seizures in responders: 72.4 ± 4.6%
  Seizure frequency during treatment, all dogs: 0.59* seizures/month
  Seizure frequency during treatment, without nonresponders: 0.42* seizures/month
  dogs that died or were euthanized in status epilepticus: 10
  dogs with focal seizures instead of grand mal seizures during treatment: 6
  number of dogs with decreased duration of the ictus: 4
  number of dogs with shortened postictal phase: 8
  owners reporting subjectively a decrease of seizure severity: 24
  postictal phase during treatment, mean: 3 h
  shortening of the postictal phase, mean: 43%
  dogs with unchanged or increased seizure severity: 11
[4]; [10]
  serum concentration of phenobarbital, mean: 18400 ng/mL
  serum concentration of phenobarbital, median: 17200 ng/mL
[4]; [11]
  serum concentration, mean: 27200 ng/mL
  serum concentration, median: 24600 ng/mL
[4]; [12]
  serum concentration of phenobarbital, mean: 32000 ng/mL
  serum concentration of phenobarbital, median: 26500 ng/mL
